The source of these data is paper PMC7769561, “Antileishmanial activity of synthetic analogs of the naturally occurring quinolone alkaloid N-methyl-8-methoxyflindersin” (PLoS ONE, 2020).

What is called EC50 is the concentration giving half of the maximal effect.

The test system of data set [1] is L. (V.) panamensis promastigotes. Briefly: Antileishmanial activity in L. (V.) panamensis promastigotes (resazurin, 72 h). In kind it is cell-based, Leishmania (Viannia) panamensis. The note with it: L. (V.) panamensis promastigotes, ± SD; for EC50: read-out: EC50 Intracellular promastigotes (converted). On the procedure: They were treated with quinoline alkaloid–like compounds at a concentration of 100, 10, 1, 0.1, and 0.01 μg/mL for 72 h at 26°C. Next, we determined antileishmanial activity using the resazurin method (Sigma-Aldrich). Promastigotes treated with amphotericin B (Sigma-Aldrich) and pentamidine (Sanofi-Aventis, Gentilly, France) were used as parasite death (positive) controls. Results were expressed as the medial effective concentration (EC50) using Prism GraphPad software for nonlinear regression analysis (https://www.graphpad.com/scientific-software/prism/).
(§1) All assays required at least three independently duplicated experiments. We determined cytotoxicity against hMDMs and effectivity in L. (V) panamensis promastigotes according to each treatment’s mortality (compound and concentration) using Eq 1, where the control mean fluorescence intensity (MFI) was 100% viability: Validityinhibition(%)=100−[MIFexposedcells/MIFunexposedcells×100] (1)
(§2) We used GraphPad Prism nonlinear regression analysis to estimate the percentage mortality with regard to CC50 and EC50. […] The antileishmanial activity with regard to promastigotes was classified as active according to Eq 2: Active=EC50<[LC50/2], (2) where LC50 is the median lethal concentration. We also used GraphPad Prism nonlinear regression analysis to determine the intracellular antileishmanial activity (concentration vs. response), depending on the infection (number of infected cells) and parasite burden (number of parasites/cell) obtained in experimental conditions. Parasite inhibition was estimated using Eq 3, where the plate MFI is 100% parasites: Infectioninhibition(%)=100−[(MIFexposedparasites/MIFunexposedparasites×100)] (3)
(Resazurin is reduced to fluorescent resorufin, in cell work by metabolically active cells.)

The test system of data set [2] is L. (V.) panamensis intracellular amastigotes. Briefly: Antileishmanial activity in L. (V.) panamensis intracellular amastigotes in hMDMs. In kind it is cell-based, Leishmania (Viannia) panamensis. The note with it: for SI (selectivity index = CC50/EC50): CC50 hMDMs / EC50 intracellular amastigotes. Here is the method: Next, 100 μL of the suspension was cultured in 96-well plates and infected with L. (V.) panamensis promastigotes (HMOM/COL/87/UA-140) at a 10:1 parasite:cell ratio. We incubated the plates in a 5% CO2 atmosphere for 4 h at 35°C. After incubation, we removed noninternalized parasites by washing the cells with 0.9% NaCl saline solution (Baxter International, Deerfield, IL, USA). The cells were incubated again for 24 h and then treated with each quinoline alkaloid–like compound at a concentration of 100, 10, 1, 0.1, and 0.01 μg/mL in a 5% CO2 atmosphere for 72 h at 36°C. Next, we quantified the percentage of infected cells using fluorescence microscopy, as previously described by Pérez-Cordero in 2011 [23], and quantified the parasite load (amount of intracellular promastigotes and amastigotes per cell) using Giemsa staining and flow cytometry (Cytomics FC 500 MPL; Beckman Coulter, Brea, CA, USA). […] Results were expressed as EC50 using Prism GraphPad software’s probit nonlinear regression analysis (https://www.graphpad.com/scientific-software/prism/).
as §2
The percentage inhibition was used to calculate EC50 by nonlinear regression analysis (fluorescence microscopy), while the parasite burden was evaluated as the percentage of intracellular promastigotes and amastigotes in 100 infected cells (Giemsa staining). […] The selectivity index (SI) was estimated using the following formula: SI=CC50/EC50

The test system of the next data set is hMDMs. Briefly: Apoptosis in noninfected and L. (V.) panamensis-infected hMDMs (annexin V/7AAD flow cytometry). In kind it is cell-based, human. Particulars: compound at EC50, 72 h. Here is the method: Next, the cells were fixed with 4% paraformaldehyde for evaluating dead cells using a live/dead cell viability kit (Beckton, Dickinson and Company, Franklin Lakes, NJ, USA). hMDMs cultured without any treatment were used as viability controls, while those treated with 0.01% H2O2, 10 μg/mL of lipopolysaccharide (LPS; Sigma-Aldrich), and 1% dimethyl sulfoxide (DMSO) were used as cell mortality (positive) controls. Apoptotic and necrotic cells were quantified using flow cytometry (FACS Canto II; Becton, Dickinson and Company).
In general terms: Flow cytometry measures light scatter and fluorescence of single cells or particles in a stream.

The subject of data set [3] is L. (V.) panamensis-infected hMDMs. Briefly: ROS generation in L. (V.) panamensis-infected hMDMs (H2DCFDA flow cytometry). In kind it is cell-based, human. The note with it: compound at EC50, 4, 24, 48 and 72 h. On the procedure:
(§3) Next, we detached the cells with ethylenediaminetetraacetic acid (EDTA)/trypsin (Lonza, MD, USA) and 2',7'-dichlorodihydrofluorescein diacetate (H2DCFDA) tagged on a 5 μM fluorescent tube (Sigma-Aldrich) in order to identify intracellular ROS and/or 4-amino-5-methylamino-2′,7′-difluorofluorescein (DAF-FM; Sigma-Aldrich) for NO production in a 5% CO2 atmosphere for 45 min at 37°C. ROS and NO were quantified using flow cytometry (FACS Canto II) at a wavelength of 480 nm. Untreated cells were used as negative controls, while cells treated with 0.0001% H2O2 and 1 μM phorbol myristate acetate were used as ROS production (positive) controls. LPS (10 ng/mL) and phytohemagglutinin (PHA-M) (10 μL/mL) (Invitrogen) were used as positive controls for NO production.

Data set [4] shares this test system. Briefly: NO production in L. (V.) panamensis-infected hMDMs (DAF-FM flow cytometry). In kind it is cell-based, human. On the procedure:
as §3

The test system is the same in data set [5]. Briefly: Transmission electron microscopy of L. (V.) panamensis-infected hMDMs. As to Cell membrane (ultrastructural modification grade): key: -: no alteration/absence; +: low alteration/low presence; ++: alteration/moderate presence; +++: serious disturbance/abundant presence. As to LB (lipid bodies, grade): key: -: no alteration/absence; +: low alteration/low presence; ++: alteration/moderate presence; +++: serious disturbance/abundant presence. As to Mitochondria (ultrastructural modification grade): key: -: no alteration/absence; +: low alteration/low presence; ++: alteration/moderate presence; +++: serious disturbance/abundant presence. As to Nucleus (ultrastructural modification grade): key: -: no alteration/absence; +: low alteration/low presence; ++: alteration/moderate presence; +++: serious disturbance/abundant presence. The data set is classed as cell-based, human. The note with it: compound at EC50, 72 h, TEM. From the text:
(§4) This procedure involved including fresh resin and 100–200-nm-wide ultrafine cuts observed by TEM (100X–10.000X) (HITACHI-HU-12; Hitachi, Tokyo, Japan).

For data set [6], the system named is L. (V.) panamensis intracellular amastigotes. Put plainly: Transmission electron microscopy of L. (V.) panamensis intracellular amastigotes in hMDMs. Particulars: compound at EC50, 72 h, TEM. On the set-up: Nucleus (ultrastructural alteration grade) / Vacuoles (ultrastructural alteration grade): key: -: no alteration/absence; +: low alteration/low presence; ++: alteration/moderate presence; +++: serious disturbance/abundant presence. In kind it is cell-based, Leishmania (Viannia) panamensis.
Source text: as §4

A short description of data set [7]: Cytotoxicity in hMDMs (resazurin, 72 h). Particulars: human. On the procedure: We isolated hMDMs from buffy coats donated by the Institute of Local Science (Biotechnology and Health Innovation, Bogotá, Colombia) and spun them in Lymphoprep density gradient medium (Stem-Cell, Vancouver, Canada).
Next, we added 100 μL of this culture to each quinoline alkaloid–like compound at a concentration of 200, 20, 2, 0.2, and 0.02 μg/mL. […] Cells treated with amphotericin B (Sigma-Aldrich) were used as cell apoptosis (positive) controls. Results were expressed as the medial cytotoxic concentration (CC50) using Prism GraphPad software for nonlinear regression analysis (https://www.graphpad.com/scientific-software/prism/).
as §1, §2

In data set [8] the test system is L. (V.) panamensis intracellular amastigotes. Put plainly: Antileishmanial activity in L. (V.) panamensis intracellular amastigotes in hMDMs. In kind it is cell-based, Leishmania (Viannia) panamensis. The note with it: 72 h, ± SD.
Setting [9] is: amastigotes in hMDMs, 72 h, ± SD.

Structures are written as SMILES. In brackets after ≈: the same amount, converted by molar mass. Several values for one entry are separate records, joined by “and”; a condition that tells them apart may be missing. Equal entries are not always repeated.

Turning to `COc1ccc2c3c(c(=O)n(C)c2c1)C=CC(C)(C)O3` [Compound 1, N-methyl-8-methoxyflindersin], in data set [1], the “EC50 Intracellular promastigotes” value was 9.9 ± 3 µg/mL (≈ 36.5 µM) and the EC50 was 36.5 µM. For the same molecule, the “SI (selectivity index = CC50/EC50)” value in data set [2] turned out to be 5.87. In data set [2] (setting [9]), the response was half-maximal at 29.2 µM (EC50) and the “EC50 Intracellular amastigotes” value was found to be 7.4 ± 1.95 µg/mL (≈ 27.3 µM). In [2] (intracellular amastigotes, class by EC50), the Antileishmanial activity class entry was “high (high if EC50 < 25 μg/mL)”. The “Percentage of apoptotic cells (annexin V+ 7AAD–, Q3)” value in the data set with hMDMs (L. (V.) panamensis-infected hMDMs) came out at 41.3%. In the data set with hMDMs (noninfected (basal) hMDMs), the “Percentage of apoptotic cells (annexin V+ 7AAD–, Q3)” value was 20.2%. Besides, in data set [3], the “ROS generation compared to infected control cells” value is given as “no significant variations”. The “NO production compared to untreated infected hMDMs” value in [4] (compound at EC50, 24, 48 and 72 h) is “increase in NO production”. Moreover, the NO production result in data set [4] (compound at EC50, 72 h posttreatment) is “increase in NO production”. In data set [5], the “Cell membrane (ultrastructural modification grade)” value is “-”; the “LB (lipid bodies, grade)” value is reported as “-”; the “Mitochondria (ultrastructural modification grade)” value was “+”; the “Nucleus (ultrastructural modification grade)” value is recorded as “-”. In data set [5], the “PV (description)” value is reported as “Individuals, attached to the parasite”; the “PV (parasitophorous vacuoles, grade)” value is “+”; the “Parasites (grade)” value is on record as “+”; the “Vacuoles (description)” value is on record as “Double membrane (autophagic-digestives)”. Moreover, the “Vacuoles (ultrastructural modification grade)” value in [5] is recorded as “++”. In addition, in data set [6], the “Cell membrane (description)” value is “Integrity damage in membrane”; the “Cell membrane (ultrastructural alteration grade)” value is reported as “+++”; the “Flagellum (flagellar/axonema pocket) (grade)” value was “-”; the “LB (lipid bodies, grade)” value is given as “-”. In addition, in data set [6], the “Mitochondria/Kinetoplasts (ultrastructural alteration grade)” value is “-”, the “Nucleus (description)” value was “Nuclear membrane damage”, the “Nucleus (ultrastructural alteration grade)” value was “+++” and the “PV (description)” value is listed as “Individuals attached to the parasite”. Moreover, in [6], the “PV (parasitophorous vacuoles, grade)” value is reported as “+”; the “Vacuoles (description)” value is reported as “Electrodense acidocalcisome type”; the “Vacuoles (ultrastructural alteration grade)” value is “++”.
As for `Cc1cc(=O)[nH]c2ccccc12` [Compound 4, 4-methyl-2-(1H)-quinolinone], in data set [7], the CC50 at 72 h is 95.2 µg/mL and 391 µM. Also, the EC50 in data set [1] was 62.3 µg/mL and 256 µM; in data set [8] it was 57.1 µg/mL and 256 µM. Further, in data set [2], the “SI (selectivity index = CC50/EC50)” value stood at 1.66.
Consider `C[C@@H]1[C@H](O)[C@@H](C)/C=C/C=C/C=C/C=C/C=C/C=C/C=C/[C@H](O[C@@H]2O[C@H](C)[C@@H](O)[C@H](N)[C@@H]2O)C[C@@H]2O[C@](O)(C[C@@H](O)C[C@@H](O)[C@H](O)CC[C@@H](O)C[C@@H](O)CC(=O)O[C@H]1C)C[C@H](O)[C@H]2C(=O)O` [AMB, amphotericin B, reference compound], for which, in data set [7], the CC50 at 72 h was 4.5 µg/mL and 4.9 µM. Besides, the EC50 in data set [1] is 0.3 µg/mL and 300 nM; in data set [8] it was 0.4 µg/mL and 400 nM. Besides, the “SI (selectivity index = CC50/EC50)” value in data set [2] came to 11.25.
